Assay results as given in patent US20250099474A1 (priority 2022, published 2025).

System: SARS-CoV-2
Assay: Phase 2/3 study, Phase 2b Part: score of 12 COVID-19 symptoms per unit time
Format: in vivo, human
Method: The primary endpoints of Phase 2b Part were the time-weighted average change in the total score of 12 COVID-19 symptoms per unit time from the start of the first administration (Day 1) to 120 hours (Day 6), and the change from baseline in SARS-CoV-2 virus titer on Day 4, in mild/moderate SARS-CoV-2-infected patients, and the clinical improvement and the antiviral effect of the active drug were confirmed.
The administration of the active drug is repeated oral administration once a day for 5 days. The 375/125 mg group received 375 mg on Day 1 as a loading dose and 125 mg on Days 2 to 5 as a maintenance dose. The 750/250 mg group received 750 mg on Day 1 as a loading dose and 250 mg on Days 2 to 5 as a maintenance dose.
The primary efficacy endpoints of Phase 2b Part for mild/moderate SARS-CoV-2-infected patients were the time-weighted average change in the total score of 12 COVID-19 symptoms per unit time from the start of the first administration (Day 1) to 120 hours (Day 6), and the change from baseline in SARS-CoV-2 virus titer on Day 4. The total score of 12 COVID-19 symptoms is the sum of the scores determined by evaluation in four grades (0: none, 1: mild, 2: moderate, 3: severe) in the subject daily records for each of the 12 COVID-19 symptoms (low energy and tiredness, muscle or body aches, headache, chills or shivering, feeling hot or feverish, stuffy and runny nose, sore throat, cough, shortness of breath (difficulty breathing), nausea, vomiting, diarrhea).
Pairwise comparison was performed between each active drug dose group and the placebo group. […] Pairwise comparison was performed between each active drug dose group and the placebo group.
The results of classifying the twelve COVID-19 symptoms shown in the above (2-a) into 5 types (acute symptoms, major clinical symptoms, respiratory symptoms, systemic symptoms, and gastrointestinal symptoms) and analyzing the same (ITT population) are shown in the following table. • Acute symptoms: sore throat, cough, feeling hot and feverish • Major clinical symptoms: stuffy and runny nose, sore throat, cough, chills or shivering, feeling hot or feverish • Respiratory symptoms: stuffy and runny nose, sore throat, cough, shortness of breath (difficulty breathing) • Systemic symptoms: low energy and tiredness, muscle or body aches, headache, chills or shivering, feeling hot or feverish • Gastrointestinal symptoms: nausea, vomiting, diarrhea

[1] = ITT population, 375/125 mg group
[2] = ITT population, 750/250 mg group

Compound: Cn1cnc(Cn2c(=O)[nH]/c(=N\c3cc4cn(C)nc4cc3Cl)n(Cc3cc(F)c(F)cc3F)c2=O)n1 [(6E)-6-[(6-chloro-2-methyl-2H-indazol-5-yl)imino]-3-[(1-methyl-1H-1,2,4-triazol-3-yl)methyl]-1-[(2,4,5-trifluorophenyl)methyl]-1,3,5-triazinane-2,4-dione]
- Respiratory symptoms sub-total score as compared with the placebo group (375/125 mg group (p=0.0153) and 750/250 mg group (p=0.0032)): a significant improving effect was observed
- Change up to 120 hours in total score of 12 COVID-19 symptoms per unit time as compared with the placebo group (375/125 mg group and 750/250 mg group): a numerical decrease tendency was observed as compared with the placebo group, but a statistically significant difference was not observed
- Change from baseline up to 120 hours in sub-total score per unit time, acute symptoms: Adjusted mean value by covariance analysis (standard error) [1]: −2.36 (0.10)
- Change from baseline up to 120 hours in sub-total score per unit time, acute symptoms: Difference of adjusted mean value from that of placebo group (standard error) [1]: −0.20 (0.12)
- Change from baseline up to 120 hours in sub-total score per unit time, acute symptoms: Maximum value [1]: 0.45
- Change from baseline up to 120 hours in sub-total score per unit time, acute symptoms: Mean value [1]: −2.52
- Change from baseline up to 120 hours in sub-total score per unit time, acute symptoms: Median value [1]: −2.55
- Change from baseline up to 120 hours in sub-total score per unit time, acute symptoms: Minimum value [1]: −6.19
- Change from baseline up to 120 hours in sub-total score per unit time, gastrointestinal symptoms: Adjusted mean value by covariance analysis (standard error) [1]: −1.27 (0.14)
- Change from baseline up to 120 hours in sub-total score per unit time, gastrointestinal symptoms: Difference of adjusted mean value from that of placebo group (standard error) [1]: 0.06 (0.18)
- Change from baseline up to 120 hours in sub-total score per unit time, gastrointestinal symptoms: Maximum value [1]: −0.16
- Change from baseline up to 120 hours in sub-total score per unit time, gastrointestinal symptoms: Mean value [1]: −1.39
- Change from baseline up to 120 hours in sub-total score per unit time, gastrointestinal symptoms: Median value [1]: −0.99
- Change from baseline up to 120 hours in sub-total score per unit time, gastrointestinal symptoms: Minimum value [1]: −5.80
- Change from baseline up to 120 hours in sub-total score per unit time, major clinical symptoms: Adjusted mean value by covariance analysis (standard error) [1]: −3.34 (0.14)
- Change from baseline up to 120 hours in sub-total score per unit time, major clinical symptoms: Difference of adjusted mean value from that of placebo group (standard error) [1]: −0.34 (0.17)
- Change from baseline up to 120 hours in sub-total score per unit time, major clinical symptoms: Maximum value [1]: 0.55
- Change from baseline up to 120 hours in sub-total score per unit time, major clinical symptoms: Mean value [1]: −3.56
- Change from baseline up to 120 hours in sub-total score per unit time, major clinical symptoms: Median value [1]: −3.33
- Change from baseline up to 120 hours in sub-total score per unit time, major clinical symptoms: Minimum value [1]: −9.76
- Change from baseline up to 120 hours in sub-total score per unit time, respiratory symptoms: Adjusted mean value by covariance analysis (standard error) [1]: −2.09 (0.12)
- Change from baseline up to 120 hours in sub-total score per unit time, respiratory symptoms: Difference of adjusted mean value from that of placebo group (standard error) [1]: −0.37 (0.15)
- Change from baseline up to 120 hours in sub-total score per unit time, respiratory symptoms: Maximum value [1]: 1.30
- Change from baseline up to 120 hours in sub-total score per unit time, respiratory symptoms: Mean value [1]: −2.28
- Change from baseline up to 120 hours in sub-total score per unit time, respiratory symptoms: Median value [1]: −1.99
- Change from baseline up to 120 hours in sub-total score per unit time, respiratory symptoms: Minimum value [1]: −6.44
- Change from baseline up to 120 hours in sub-total score per unit time, systemic symptoms: Adjusted mean value by covariance analysis (standard error) [1]: −3.31 (0.14)
- Change from baseline up to 120 hours in sub-total score per unit time, systemic symptoms: Difference of adjusted mean value from that of placebo group (standard error) [1]: 0.15 (0.18)
- Change from baseline up to 120 hours in sub-total score per unit time, systemic symptoms: Maximum value [1]: 1.80
- Change from baseline up to 120 hours in sub-total score per unit time, systemic symptoms: Mean value [1]: −3.71
- Change from baseline up to 120 hours in sub-total score per unit time, systemic symptoms: Median value [1]: −3.18
- Change from baseline up to 120 hours in sub-total score per unit time, systemic symptoms: Minimum value [1]: −14.30
- Change from baseline up to 120 hours in sub-total score per unit time, acute symptoms: Adjusted mean value by covariance analysis (standard error) [2]: −2.50 (0.10)
- Change from baseline up to 120 hours in sub-total score per unit time, acute symptoms: Difference of adjusted mean value from that of placebo group (standard error) [2]: −0.33 (0.12)
- Change from baseline up to 120 hours in sub-total score per unit time, acute symptoms: Maximum value [2]: 0.52
- Change from baseline up to 120 hours in sub-total score per unit time, acute symptoms: Mean value [2]: −2.63
- Change from baseline up to 120 hours in sub-total score per unit time, acute symptoms: Median value [2]: −2.71
- Change from baseline up to 120 hours in sub-total score per unit time, acute symptoms: Minimum value [2]: −6.93
- Change from baseline up to 120 hours in sub-total score per unit time, gastrointestinal symptoms: Adjusted mean value by covariance analysis (standard error) [2]: −1.08 (0.14)
- Change from baseline up to 120 hours in sub-total score per unit time, gastrointestinal symptoms: Difference of adjusted mean value from that of placebo group (standard error) [2]: 0.25 (0.18)
- Change from baseline up to 120 hours in sub-total score per unit time, gastrointestinal symptoms: Maximum value [2]: 0.50
- Change from baseline up to 120 hours in sub-total score per unit time, gastrointestinal symptoms: Mean value [2]: −1.13
- Change from baseline up to 120 hours in sub-total score per unit time, gastrointestinal symptoms: Median value [2]: −0.79
- Change from baseline up to 120 hours in sub-total score per unit time, gastrointestinal symptoms: Minimum value [2]: −5.78
- Change from baseline up to 120 hours in sub-total score per unit time, major clinical symptoms: Adjusted mean value by covariance analysis (standard error) [2]: −3.42 (0.14)
- Change from baseline up to 120 hours in sub-total score per unit time, major clinical symptoms: Difference of adjusted mean value from that of placebo group (standard error) [2]: −0.42 (0.17)
- Change from baseline up to 120 hours in sub-total score per unit time, major clinical symptoms: Maximum value [2]: 0.39
- Change from baseline up to 120 hours in sub-total score per unit time, major clinical symptoms: Mean value [2]: −3.54
- Change from baseline up to 120 hours in sub-total score per unit time, major clinical symptoms: Median value [2]: −3.42
